# Results published in US20190374533A1, “COMPOUNDS AND METHODS FOR INHIBITING NHE-MEDIATED ANTIPORT IN THE TREATMENT OF DISORDERS ASSOCIATED WITH FLUID RETENTION OR SALT OVERLOAD AND GASTROINTESTINAL TRACT DISORDERS” (Ardelyx, Inc., priority 2008, published 2019).
# Target: T1, rat NHE-3 (Rattus norvegicus, UniProt P26433)
# T1 construct: expressed in transfected cells; host or cells: Opossum kidney (OK) cells (ATCC), electroporated
# Assay: Cell-based assay of NHE-3 activity (Pharmacological Test Example 1)
# Conditions: OK cells expressing rat NHE-3; 0-30 uM test compound, 5 uM EIPA
# Experimental: Rat NHE-3-mediated Na^+-dependent H^+ antiport was measured using a modification of the pH sensitive dye method originally reported by Tsien (Proc. Natl. Acad. Sci. USA. (1984) 81(23): 7436-7440). Opossum kidney (OK) cells were obtained from the ATCC and propagated per their instructions. The rat NHE-3 gene was introduced into OK cells via electroporation, seeded into 96 well plates and grown overnight. Medium was aspirated from the wells, cells were washed twice with NaCl-HEPES buffer (100 mM NaCl, 50 mM HEPES, 10 mM glucose, 5 mM KCl, 2 mM CaCl2, 1 mM MgCl2, pH 7.4), then incubated for 30 min at room temperature with NH4Cl-HEPES buffer (20 mM NH4Cl, 80 mM NaCl, 50 mM HEPES, 5 mM KCl, 2 mM CaCl2), 1 mM MgCl2, pH 7.4) containing 5 uM BCECF-AM (Invitrogen). Cells were washed twice with Ammonium free, Nat-free HEPES (100 mM choline, 50 mM HEPES, 10 mM glucose, 5 mM KCl, 2 mM CaCl2), 1 mM MgCl2, pH 7.4) and incubated in the same buffer for 10 minutes at room temperature to lower intracellular pH. […] Initial rates were plotted as the average 3-6 replicates, and pIC50 values were estimated using GraphPad Prism.
# T1 sequence (P26433 29-831): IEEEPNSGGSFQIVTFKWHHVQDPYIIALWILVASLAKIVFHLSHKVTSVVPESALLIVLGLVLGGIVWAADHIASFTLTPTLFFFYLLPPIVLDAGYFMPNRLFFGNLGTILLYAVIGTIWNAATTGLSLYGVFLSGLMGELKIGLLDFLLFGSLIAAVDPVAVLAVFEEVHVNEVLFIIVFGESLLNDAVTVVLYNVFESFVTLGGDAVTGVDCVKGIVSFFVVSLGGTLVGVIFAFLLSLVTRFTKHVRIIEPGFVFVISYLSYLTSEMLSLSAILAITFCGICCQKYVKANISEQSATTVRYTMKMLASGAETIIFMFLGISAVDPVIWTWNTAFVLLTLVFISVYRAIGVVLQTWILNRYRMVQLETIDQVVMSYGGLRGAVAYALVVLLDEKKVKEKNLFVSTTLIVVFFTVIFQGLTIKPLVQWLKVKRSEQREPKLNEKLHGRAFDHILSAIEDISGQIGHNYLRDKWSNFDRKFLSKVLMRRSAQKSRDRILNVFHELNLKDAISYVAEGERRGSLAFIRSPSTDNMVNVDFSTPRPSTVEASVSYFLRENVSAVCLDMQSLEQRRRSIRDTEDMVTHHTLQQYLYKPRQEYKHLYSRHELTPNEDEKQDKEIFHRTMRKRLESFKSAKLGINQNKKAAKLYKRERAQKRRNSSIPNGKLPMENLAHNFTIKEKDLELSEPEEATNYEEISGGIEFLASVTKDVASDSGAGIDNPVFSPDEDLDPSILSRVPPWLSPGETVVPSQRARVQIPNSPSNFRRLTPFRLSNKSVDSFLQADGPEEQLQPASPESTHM
row,Structure (SMILES),rat NHE-3 Average pIC50
1,"CN1Cc2c(Cl)cc(Cl)cc2C(c2cccc(S(=O)(=O)NCCOCCOCCOCCNC(=O)NCCOCCOCCOCCNS(=O)(=O)c3cccc(C4CN(C)Cc5c(Cl)cc(Cl)cc54)c3)c2)C1 (stereo not shown) [Example 100, N,N′-(13-oxo-3,6,9,17,20,23-hexaoxa-12,14-diazapentacosane-1,25-diyl)bis(3-(6,8-dichloro-2-methyl-1,2,3,4-tetrahydroisoquinolin-4-yl)benzenesulfonamide)]",6 to 7
2,"C/C(=C\c1cc(F)c(Oc2ccc(S(=O)(=O)NCCOCCOCCOCCOCCOCCOCCNC(=O)[C@H](O)[C@@H](O)C(=O)NCCOCCOCCOCCOCCOCCOCCNS(=O)(=O)c3ccc(Oc4c(F)cc(/C=C(\C)C(=O)N=C(N)N)cc4F)cc3)cc2)c(F)c1)C(=O)N=C(N)N [Example 210, (2R,3R)—N1,N4-bis(20-(4-(4-((E)-3-(diaminomethyleneamino)-2-methyl-3-oxoprop-1-enyl)-2,6-difluorophenoxy)phenylsulfonamido)-3,6,9,12,15,18-hexaoxaicosyl)-2,3-dihydroxysuccinamide]",6 to 7
3,"CN1Cc2c(Cl)cc(Cl)cc2C(c2ccc(S(=O)(=O)NCCOCCOCCOCCNC(=O)CCOCCOCCOCCOCCOCCOCCOCCOCCOCCC(=O)NCCOCCOCCOCCNS(=O)(=O)c3ccc(C4CN(C)Cc5c(Cl)cc(Cl)cc54)cc3)cc2)C1 (stereo not shown) [Example 98, N1,N31-bis(2-(2-(2-(2-(4-(6,8-dichloro-2-methyl-1,2,3,4-tetrahydroisoquinolin-4-yl)phenylsulfonamido)ethoxy)ethoxy)ethoxy)ethyl)-4,7,10,13,16,19,22,25,28-nonaoxahentriacontane-1,31-diamide]",>7

# System: not listed separately
# Assay: Determination of compound Cmax and AUC
# Type: in vivo
# Conditions: rat; Sprague-Dawley rats, oral gavage, serum 0.5-4 h; actual oral dose (mg/kg) given
# Experimental: Sprague-Dawley rats were orally gavaged with test article (2.5 mg/kg) and serum was collected at 0.5, 1, 2 and 4 h. Serum samples were treated with acetonitrile, precipitated proteins removed by centrifugation and supernatants analyzed by LC/MS/MS and compared against a standard curve to determine compound concentration. All compounds were orally dosed at the dosage shown, and pharmacokinetic parameters determined as described in the text.
Structure (SMILES),AUC,Cmax
"CN1Cc2c(Cl)cc(Cl)cc2C(c2cccc(S(=O)(=O)NCCNC(=O)C(O)C(O)C(=O)NCCNS(=O)(=O)c3cccc(C4CN(C)Cc5c(Cl)cc(Cl)cc54)c3)c2)C1 (stereo not shown) [Example 169, N1,N4-bis(2-(3-(6,8-dichloro-2-methyl-1,2,3,4-tetrahydroisoquinolin-4-yl)phenylsulfonamido)ethyl)-2,3-dihydroxysuccinamide]",< 4 ng·h/mL,< 3.5 ng/mL
"CN1Cc2c(Cl)cc(Cl)cc2C(c2cccc(S(=O)(=O)NCCOCCOCCOCCNC(=O)C(O)C(O)C(=O)NCCOCCOCCOCCNS(=O)(=O)c3cccc(C4CN(C)Cc5c(Cl)cc(Cl)cc54)c3)c2)C1 (stereo not shown) [Example 172, N1,N4-bis(2-(2-(2-(2-(3-(6,8-dichloro-2-methyl-1,2,3,4-tetrahydroisoquinolin-4-yl)phenylsulfonamido)ethoxy)ethoxy)ethoxy)ethyl)-2,3-dihydroxysuccinamide]",< 2 ng·h/mL,< 2 ng/mL
"CN1Cc2c(Cl)cc(Cl)cc2C(c2cccc(NC(=O)NCCOCCOCCOCCNC(=O)C(O)C(O)C(=O)NCCOCCOCCOCCNC(=O)Nc3cccc(C4CN(C)Cc5c(Cl)cc(Cl)cc54)c3)c2)C1 (stereo not shown) [Example 174, N1,N4-bis(1-(3-(6,8-dichloro-2-methyl-1,2,3,4-tetrahydroisoquinolin-4-yl)phenylamino)-1-oxo-5,8,11-trioxa-2-azatridecan-13-yl)-2,3-dihydroxysuccinamide]",< 5 ng·h/mL,< 5.4 ng/mL
"CN1Cc2c(Cl)cc(Cl)cc2C(c2cccc(S(=O)(=O)NCCOCCOCCNC(=O)NCCOCCOCCNS(=O)(=O)c3cccc(C4CN(C)Cc5c(Cl)cc(Cl)cc54)c3)c2)C1 (stereo not shown) [Example 235, N,N′-(10-oxo-3,6,14,17-tetraoxa-9,11-diazanonadecane-1,19-diyl)bis(3-(6,8-dichloro-2-methyl-1,2,3,4-tetrahydroisoquinolin-4-yl)benzenesulfonamide)]",< 5 ng·h/mL,< 5 ng/mL
"C/C(=C\c1cc(F)c(Oc2ccc(S(=O)(=O)NCCN3CCN(CCNS(=O)(=O)c4ccc(Oc5c(F)cc(/C=C(\C)C(=O)N=C(N)N)cc5F)cc4)CC3)cc2)c(F)c1)C(=O)N=C(N)N [Example 50, N,N′-(2,2′-(piperazine-1,4-diyl)bis(ethane-2,1-diyl))di-((E)-N-(diaminomethylene)-3-(3,5-difluoro-4-(4-sulfamoylphenoxy)phenyl)-2-methylacrylamide)]",242 ng·h/mL,93 ng/mL

# Results, then the compound that gave them:
AUC,Cmax,Structure (SMILES)
< 5 ng·h/mL,< 5 ng/mL,"CN1Cc2c(Cl)cc(Cl)cc2C(c2cccc(S(=O)(=O)NCCOCCOCCOCCOCCOCCOCCOCCOCCOCCOCCN)c2)C1 (stereo not shown) [Example 214, N-(32-amino-3,6,9,12,15,18,21,24,27,30-decaoxadotriacontyl)-3-(6,8-dichloro-2-methyl-1,2,3,4-tetrahydroisoquinolin-4-yl)benzenesulfonamide]"
< 19 ng·h/mL,< 10 ng/mL,"CN1Cc2c(Cl)cc(Cl)cc2C(c2cccc(S(=O)(=O)NCCOCCOCCOCCNC(=O)C(=O)NCCOCCOCCOCCNS(=O)(=O)c3cccc(C4CN(C)Cc5c(Cl)cc(Cl)cc54)c3)c2)C1 (stereo not shown) [Example 180, N1,N2-bis(2-(2-(2-(2-(3-(6,8-dichloro-2-methyl-1,2,3,4-tetrahydroisoquinolin-4-yl)phenylsulfonamido)ethoxy)ethoxy)ethoxy)ethyl)oxalamide]"
< 2 ng·h/mL,< 2 ng/mL,"CN(CC(=O)NCCOCCOCCNS(=O)(=O)c1ccc(C2CN(C)Cc3c(Cl)cc(Cl)cc32)cc1)CC(=O)NCCOCCOCCNS(=O)(=O)c1ccc(C2CN(C)Cc3c(Cl)cc(Cl)cc32)cc1 (stereo not shown) [Example 185, 2,2′-(methylazanediyl)bis(N-(2-(2-(2-(4-(6,8-dichloro-2-methyl-1,2,3,4-tetrahydroisoquinolin-4-yl)phenylsulfonamido)ethoxy)ethoxy)ethyl)acetamide) tris(2,2,2-trifluoroacetate)]"
< 1 ng·h/mL,< 1 ng/mL,"CN1Cc2c(Cl)cc(Cl)cc2C(c2cccc(S(=O)(=O)NCCOCCOCCNC(=O)[C@H](O)[C@@H](O)C(=O)NCCOCCOCCNS(=O)(=O)c3cccc(C4CN(C)Cc5c(Cl)cc(Cl)cc54)c3)c2)C1 (stereo partly drawn) [Example 218, (2R,3R)—N1,N4-bis(2-(2-(2-(3-(6,8-dichloro-2-methyl-1,2,3,4-tetrahydroisoquinolin-4-yl)phenylsulfonamido)ethoxy)ethoxy)ethyl)-2,3-dihydroxysuccinamide]"
< 5 ng·h/mL,< 3.4 ng/mL,"CN1Cc2c(Cl)cc(Cl)cc2C(c2ccc(S(=O)(=O)NCCOCCOCCNC(=O)c3cc(N)cc(C(=O)NCCOCCOCCNS(=O)(=O)c4ccc(C5CN(C)Cc6c(Cl)cc(Cl)cc65)cc4)c3)cc2)C1.O=C(O)C(F)(F)F.O=C(O)C(F)(F)F.O=C(O)C(F)(F)F (stereo not shown) [Example 186, 5-amino-N1,N3-bis(2-(2-(2-(4-(6,8-dichloro-2-methyl-1,2,3,4-tetrahydroisoquinolin-4-yl)phenylsulfonamido)ethoxy)ethoxy)ethyl)isophthalamide tris(2,2,2-trifluoroacetate)]"
< 5 ng·h/mL,< 3 ng/mL,"CN1Cc2c(Cl)cc(Cl)cc2[C@@H](c2ccc(S(=O)(=O)NCCOCCOCCOCCNC(=O)C(O)C(O)C(=O)NCCOCCOCCOCCNS(=O)(=O)c3ccc([C@H]4CN(C)Cc5c(Cl)cc(Cl)cc54)cc3)cc2)C1 (single isomer, unassigned) [Example 226, N1,N4-bis(2-(2-(2-(2-(4-((R or S)-6,8-dichloro-2-methyl-1,2,3,4-tetrahydroisoquinolin-4-yl)phenylsulfonamido)ethoxy)ethoxy)ethoxy)ethyl)-2,3-dihydroxysuccinamide]"
< 35 ng·h/mL,< 16 ng/mL,"CN1Cc2c(Cl)cc(Cl)cc2C(c2cccc(NC(=O)CCOCCOCCOCCNC(=O)[C@H](O)[C@@H](O)C(=O)NCCOCCOCCOCCC(=O)Nc3cccc(C4CN(C)Cc5c(Cl)cc(Cl)cc54)c3)c2)C1 (stereo partly drawn) [Example 179, (2R,3R)—N1,N4-bis(2-(2-(2-(3-(3-(6,8-dichloro-2-methyl-1,2,3,4-tetrahydroisoquinolin-4-yl)phenylamino)-3-oxopropoxy)ethoxy)ethoxy)ethyl)-2,3-dihydroxysuccinamide]"
< 2 ng·h/mL,< 2 ng/mL,"CN1Cc2c(Cl)cc(Cl)cc2C(c2cccc(S(=O)(=O)NCCOCCOCCOCCNC(=O)CCC(=O)NCCOCCOCCOCCNS(=O)(=O)c3cccc(C4CN(C)Cc5c(Cl)cc(Cl)cc54)c3)c2)C1 (stereo not shown) [Example 181, N1,N4-bis(2-(2-(2-(2-(3-(6,8-dichloro-2-methyl-1,2,3,4-tetrahydroisoquinolin-4-yl)phenylsulfonamido)ethoxy)ethoxy)ethoxy)ethyl)succinamide]"
< 2 ng·h/mL,< 2 ng/mL,"CN1Cc2c(Cl)cc(Cl)cc2[C@H](c2cccc(S(=O)(=O)NCCOCCOCCOCCNC(=O)Nc3ccc(NC(=O)NCCOCCOCCOCCNS(=O)(=O)c4cccc([C@@H]5CN(C)Cc6c(Cl)cc(Cl)cc65)c4)cc3)c2)C1 (single isomer, unassigned) [Example 245, (S or R)—N,N′-(1,1′-(1,4-phenylenebis(azanediyl))bis(1-oxo-5,8,1-trioxa-2-azatridecane-13,1-diyl))bis(3-((S or R)-6,8-dichloro-2-methyl-1,2,3,4-tetrahydroisoquinolin-4-yl)benzenesulfonamide)]"
